Measurements: patent publication US7427623B2, “4-Amino-2,3-disubstituted thieno[2,3-d]pyrimidines and pharmacetical compositions thereof” (SmithKline Beecham Corporation, priority 2001, dated 2008)

Legend:
GST-VEGFR2 = molecular target: T1, GST-VEGFR2 (Homo sapiens, UniProt P35968); assay: VEGF-R2 Enzyme Assay (VEGF-E), LANCE method; format: biochemical; settings: GST-VEGFR2, 75 uM ATP; for IC50: read-out: VEGF-E pIC50 (converted)
T1 construct: GST-VEGFR2, baculovirus expressed recombinant constructs of the intracellular domains of human TIE2 tagged by GST; made in house
T1 sequence (P35968 786-1356 limits assumed): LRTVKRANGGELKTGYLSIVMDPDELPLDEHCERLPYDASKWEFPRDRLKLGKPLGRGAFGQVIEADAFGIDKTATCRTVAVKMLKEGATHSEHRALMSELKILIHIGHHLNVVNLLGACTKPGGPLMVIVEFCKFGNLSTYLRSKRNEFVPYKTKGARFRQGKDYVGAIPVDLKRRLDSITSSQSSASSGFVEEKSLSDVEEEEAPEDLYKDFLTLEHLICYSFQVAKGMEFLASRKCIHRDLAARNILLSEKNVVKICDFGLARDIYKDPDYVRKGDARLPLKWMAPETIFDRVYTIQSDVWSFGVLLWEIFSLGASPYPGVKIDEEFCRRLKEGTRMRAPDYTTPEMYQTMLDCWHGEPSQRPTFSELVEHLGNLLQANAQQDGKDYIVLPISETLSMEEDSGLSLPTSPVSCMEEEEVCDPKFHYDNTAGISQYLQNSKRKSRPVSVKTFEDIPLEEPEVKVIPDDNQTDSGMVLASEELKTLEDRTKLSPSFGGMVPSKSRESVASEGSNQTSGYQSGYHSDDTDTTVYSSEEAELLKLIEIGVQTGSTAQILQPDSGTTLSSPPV
Protocol: VEGF-R2 Enzyme Assay (VEGF-E)
The VEGF enzyme assay used the LANCE method (Wallac) and GST-VEGFR2, baculovirus expressed recombinant constructs of the intracellular domains of human […] tagged by GST. […] The reaction was stopped by the addition of EDTA (final concentration 50 mM). […] The APC signal was measured using an ARVO multilabel counter (Wallac Berthold, Japan). The percent inhibition of activity was calculated relative to blank control wells. […] The IC50 values were converted to pIC50 values, i.e., −log IC50 in Molar concentration.

[1] = molecular target: T2, TIE2 intracellular domain/c-fms extracellular domain (TIE2/c-fms) chimeric protein (Homo sapiens, UniProt Q02763); assay: TIE-2 Autophosphorylation Assay (TIE2-C), ELISA; format: cell-based; settings: TIE2/c-fms expressing mouse 3T3 cells, MCSF activation; for IC50: read-out: TIE2-C pIC50 (converted)
T2 construct: TIE2 intracellular domain/c-fms extracellular domain (TIE2/c-fms) chimeric protein; expressed in transfected cells; host or cells: mouse 3T3 cells
T2 sequence (Q02763 770-1124 limits assumed, change not shown): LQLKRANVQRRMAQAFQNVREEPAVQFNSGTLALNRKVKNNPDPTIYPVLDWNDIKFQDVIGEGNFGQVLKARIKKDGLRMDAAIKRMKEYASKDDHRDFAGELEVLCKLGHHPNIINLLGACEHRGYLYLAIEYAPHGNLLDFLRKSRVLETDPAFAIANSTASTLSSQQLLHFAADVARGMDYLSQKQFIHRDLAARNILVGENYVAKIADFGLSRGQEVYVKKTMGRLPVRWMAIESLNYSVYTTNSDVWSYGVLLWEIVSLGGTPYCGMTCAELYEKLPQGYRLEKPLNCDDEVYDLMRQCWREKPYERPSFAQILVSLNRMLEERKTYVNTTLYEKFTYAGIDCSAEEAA
T2 sequence (P07333 20-517 partner limits assumed): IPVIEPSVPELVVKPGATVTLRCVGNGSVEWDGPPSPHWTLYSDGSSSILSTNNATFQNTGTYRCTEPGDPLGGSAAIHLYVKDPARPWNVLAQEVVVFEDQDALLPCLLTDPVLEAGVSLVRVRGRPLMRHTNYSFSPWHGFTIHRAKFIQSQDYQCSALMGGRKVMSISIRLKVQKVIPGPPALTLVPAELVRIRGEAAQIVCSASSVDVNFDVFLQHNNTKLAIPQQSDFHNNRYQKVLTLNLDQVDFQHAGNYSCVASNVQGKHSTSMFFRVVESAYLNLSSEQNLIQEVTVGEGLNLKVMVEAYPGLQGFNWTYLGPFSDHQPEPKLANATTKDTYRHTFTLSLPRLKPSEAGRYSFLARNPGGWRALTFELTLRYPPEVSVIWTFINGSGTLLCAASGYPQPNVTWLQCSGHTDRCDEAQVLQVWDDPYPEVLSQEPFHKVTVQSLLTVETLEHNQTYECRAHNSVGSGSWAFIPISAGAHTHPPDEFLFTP
T2 sequence (P09603 33-190 partner limits assumed): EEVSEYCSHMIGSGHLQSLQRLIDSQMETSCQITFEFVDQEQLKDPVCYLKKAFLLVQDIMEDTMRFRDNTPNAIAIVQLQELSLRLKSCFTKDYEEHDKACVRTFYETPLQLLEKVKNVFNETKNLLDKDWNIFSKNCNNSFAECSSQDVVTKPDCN
Protocol: TIE-2 Autophosphorylation Assay (TIE2-C)
The TIE-2 autophosphorylation assay used an ELISA method and a TIE2 intracellular domain/c-fms extracellular domain (TIE2/c-fms) chimeric protein expressing mouse 3T3 cells. This assay measured the autophosphorylation level of TIE2 protein expressed in cells. The cells were cultured in high glucose DMEM (Sigma) containing 10% serum at 37° C. in a humidified 10% CO2, 90% air incubator. The test compound (diluted from a 10 mM stock in DMSO, final DMSO concentration was 0.1%) was incubated with TIE2/c-fms expressing cells for 1 hr in serum free DMEM in 96 well plates followed by the activation of TIE2/c-fms receptor using c-fms ligand, MCSF (macrophage colony stimulating factor). […] The cell extracts were transferred into Rat anti-c-fms antibody coated 96 well plates and incubated for 12 hrs at 4 degrees. The extracts were removed by aspiration and the plate was incubated with biotinylated anti-phosphotyrosine antibody, PT66 (Sigma) and then with HRP (Horseradish Peroxidase)-labeled streptavidin (PIERCE). The optical density at 450 nm derived from HRP catalyzed TMB was measured with an ARVO multilabel counter. (Wallac Berthold Japan). The percent inhibition of activity was calculated relative to blank control wells. […] The IC50 values were converted to pIC50 values, i.e., −log IC50 in Molar concentration.

[2] = molecular target: T3, GST-TIE2 (intracellular domains of human TIE2) (Homo sapiens, UniProt Q02763); assay: TIE-2 Enzyme assay (TIE2-E), LANCE method; format: biochemical; settings: GST-TIE2, 80 uM ATP, D1–15 peptide; for IC50: read-out: TIE2-E pIC50 (converted)
T3 construct: made in house
T3 sequence (Q02763 762-1104): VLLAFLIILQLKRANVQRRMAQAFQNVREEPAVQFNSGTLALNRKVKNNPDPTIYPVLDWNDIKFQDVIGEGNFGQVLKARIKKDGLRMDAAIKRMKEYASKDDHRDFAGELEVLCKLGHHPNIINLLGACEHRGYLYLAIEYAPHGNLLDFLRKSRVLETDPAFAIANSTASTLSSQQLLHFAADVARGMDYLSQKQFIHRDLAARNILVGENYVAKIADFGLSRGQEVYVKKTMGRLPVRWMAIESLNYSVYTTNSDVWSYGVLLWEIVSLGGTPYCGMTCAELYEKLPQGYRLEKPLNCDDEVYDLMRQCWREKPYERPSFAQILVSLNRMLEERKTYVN
Protocol: TIE-2 Enzyme assay (TIE2-E)
Preactivated GST-TIE2 was incubated for 30 mins at room temperature in 96 well plates with 1 uM D1–15 peptide, 80 uM ATP, 10 mM MgCl2, 0.1 mg/ml BSA and the test compound (diluted from a 10 mM stock in DMSO, final DMSO concentration was 2.4%) in 1 mM HEPES (pH 7.4). The reaction was stopped by the addition of EDTA (final concentration 45 mM). Streptavidin linked-APC (allophycocyanin, Molecular Probe) and Europium-labeled anti-phosphorylated tyrosine antibody (Wallac) were then added at the final concentration of 17 ug/well and 2.1 ug/well, respectively. The APC signal was measured using an ARVO multilabel counter. (Wallac Berthold Japan). The percent inhibition of activity was calculated relative to blank control wells. […] The IC50 values were converted to pIC50 values, i.e., −log IC50 in Molar concentration.

[3] = tested on: Human umbilical cord endothelial cells (HUVEC); assay: VEGF-Driven Cellular Proliferation Assay, BrdU Incorporation Assay (VEGF-C); format: cell-based; settings: for IC50: Homo sapiens, read-out: VEGF-C pIC50 (converted)
Protocol: VEGF-Driven Cellular Proliferation Assay. BrdU Incorporation Assay (VEGF-C)
Human umbilical cord endothelial cells (HUVEC, Clonetics, CC2519) were passaged in Type I collagen-coated 100-mm petridishes in EGM-MV medium (Clonetics, CC3125) at 37 C in a humidified 5% CO2, 95% air incubator. […] After incubation overnight at 37° C., the media were replaced with 100 ul of M199 serum-free medium containing compounds at various concentrations with 0.6% DMSO and gentamicin. The compounds were diluted in serum-free M199 medium from 10 mM stock solutions prepared in 100% DMS0. […] The cells were pulsed with bromodeoxyuridine (BrdU at 10 uM in serum-free M199) at 37° C. for an additional 24 h. […] The optical density at 450 nm was measured with a multilabel counter (ARVO SX, Wallac). The percent inhibition of cell growth was calculated relative to blank control wells. […] The IC50 values were converted to pIC50 values, i.e., −log IC50 in Molar concentration.

Compound	VEGF-E pIC50 (GST-VEGFR2)	TIE2-C pIC50 [1]	TIE2-E pIC50 [2]	VEGF-C pIC50 [3]	IC50 (GST-VEGFR2) [nM]	IC50 [1] [nM]	IC50 [2] [nM]	IC50 [3] [nM]
4-Amino-2-(4-amino-3-(N-methylcarbamoyl)phenyl)-3-(4-methoxyphenyl)furo[2,3-d]pyrimidine [Example 147]	++ (++ = pIC50 of 6.0–7.0)	++ (++ = pIC50 of 6.0–7.0)	+ (+ = pIC50 of 5.0–6.0)	+ (+ = pIC50 of 5.0–6.0)				
4-Amino-2-(4-fluoro-3-(methylsulfonylamino)phenyl)-3-(4-methoxyphenyl)furo[2,3-d]pyrimidine [Example 178]	++ (++ = pIC50 of 6.0–7.0)	++ (++ = pIC50 of 6.0–7.0)	+ (+ = pIC50 of 5.0–6.0)	+ (+ = pIC50 of 5.0–6.0)				
4-Amino-2-(5-indolyl)-3-(4-(3-pyridyl)phenyl)furo[2,3-d]pyrimidine [Example 153]		++ (++ = pIC50 of 6.0–7.0)	++ (++ = pIC50 of 6.0–7.0)	+ (+ = pIC50 of 5.0–6.0)				
4-Amino-3-(4-(2-pyridyl)phenyl)-2-(3-sulfamoylphenyl)furo[2,3-d]pyrimidine [Example 206]	+++ (+++ = pIC50 of >7.0)	++ (++ = pIC50 of 6.0–7.0)	++ (++ = pIC50 of 6.0–7.0)	+ (+ = pIC50 of 5.0–6.0)				
4-Amino-3-(4-(4-tert-butylphenyl)phenyl)-2-(3-sulfamoylphenyl)-furo[2,3-d]pyrimidine [Example 204]		++ (++ = pIC50 of 6.0–7.0)	++ (++ = pIC50 of 6.0–7.0)	+ (+ = pIC50 of 5.0–6.0)				
4-Amino-3-(4-methoxyphenyl)-2-(3-(N-(4-pyridyl)carbamoyl)-phenyl)furo[2,3-d]pyrimidine [Example 108]		++ (++ = pIC50 of 6.0–7.0)	++ (++ = pIC50 of 6.0–7.0)	+ (+ = pIC50 of 5.0–6.0)				
4-Amino-3-(4-methoxyphenyl)-2-(3-sulfamoylphenyl)furo[2,3-d]pyrimidine [Example 165]	+++ (+++ = pIC50 of >7.0)	++ (++ = pIC50 of 6.0–7.0)	++ (++ = pIC50 of 6.0–7.0)	+ (+ = pIC50 of 5.0–6.0)				
Nc1ncnc2occ(-c3ccc(NC(=O)Nc4cc(C(F)(F)F)ccc4F)cc3)c12 [232 (8C), 4-Amino-3-(4-((2-fluoro-5-(trifluoromethyl)phenyl)-aminocarbonylamino)phenyl)furo[2,3-d]pyrimidine]					< 100	< 100	< 100	< 100
COc1ccc(-c2oc3ncnc(N)c3c2-c2ccc(NC(=O)Nc3cc(C(F)(F)F)ccc3F)cc2)cc1 [Example 4]					< 100	< 100	< 100	< 100
Nc1ncnc2oc(-c3cccc(S(N)(=O)=O)c3)c(-c3ccc(-c4cccc(F)c4F)cc3)c12 [Example 5]					< 100	100 to 1000	100 to 1000	1000 to 10000
N#Cc1cccc(-c2oc3ncnc(N)c3c2-c2ccc(NC(=O)Nc3cc(C(F)(F)F)ccc3F)cc2)c1 [Example 8]					< 100	< 100	< 100	< 100
Nc1ncnc2oc(-c3ccoc3)c(-c3ccco3)c12 [Example 15]	++ (++ = pIC50 of 6.0–7.0)	+ (+ = pIC50 of 5.0–6.0)	+ (+ = pIC50 of 5.0–6.0)	+ (+ = pIC50 of 5.0–6.0)				
Cc1ccc(-c2oc3ncnc(N)c3c2-c2ccc(C)cc2)cc1 [Example 16]	++ (++ = pIC50 of 6.0–7.0)	+ (+ = pIC50 of 5.0–6.0)	+ (+ = pIC50 of 5.0–6.0)	+ (+ = pIC50 of 5.0–6.0)				
NC(=O)c1cccc(-c2oc3ncnc(N)c3c2-c2ccc(-c3ccccc3)cc2)c1 [Example 131, 4-Amino-3-(4-biphenyl)-2-(3-carbamoylphenyl)furo[2,3-d]pyrimidine]					100 to 1000	100 to 1000	100 to 1000	1000 to 10000
CC(=O)Nc1cccc(-c2oc3ncnc(N)c3c2-c2ccc(-c3ccccc3)cc2)c1 [Example 132, 2-(3-Acetamidophenyl)-4-amino-3-(4-biphenyl)furo[2,3-d]pyrimidine]					100 to 1000	100 to 1000	1000 to 10000	1000 to 10000
CN(C)CCNC(=O)Nc1cccc(-c2oc3ncnc(N)c3c2-c2ccc(-c3ccccc3)cc2)c1 [Example 159, 4-Amino-3-(4-biphenyl)-2-((3-(2-(dimethylamino)ethyl)-aminocarbonylamino)phenyl)furo-[2,3-d]pyrimidine]					100 to 1000	100 to 1000	100 to 1000	100 to 1000
Nc1ncnc2oc(-c3cccc(S(N)(=O)=O)c3)c(-c3ccc(-c4ccccc4)cc3)c12 [Example 166, 4-Amino-3-(4-biphenyl)-2-(3-sulfamoylphenyl)furo[2,3-d]pyrimidine]					< 100	100 to 1000	100 to 1000	1000 to 10000
NC(=O)Nc1cccc(-c2oc3ncnc(N)c3c2-c2ccc(-c3ccccc3)cc2)c1 [Example 184, 4-Amino-2-(3-(aminocarbonylamino)phenyl)-3-(4-biphenyl)furo[2,3-d]pyrimidine]					< 100	100 to 1000	100 to 1000	1000 to 10000
COc1ccc(-c2oc3ncnc(N)c3c2-c2ccc(-c3ccccc3)cc2)cc1NS(C)(=O)=O [Example 189, 4-Amino-3-(4-biphenyl)-2-(4-methoxy-3-(methylsulfonylamino)phenyl)furo[2,3-d]pyrimidine]					< 100	100 to 1000	100 to 1000	1000 to 10000
NC(=O)Nc1ccc(-c2oc3ncnc(N)c3c2-c2ccc(-c3ccccc3)cc2)cc1 [Example 192, 4-Amino-3-(4-biphenyl)-2-(4-(aminocarbonylamino)phenyl)furo[2,3-d]pyrimidine]					< 100	100 to 1000	100 to 1000	1000 to 10000
Nc1ncnc2oc(-c3ccc4[nH]nnc4c3)c(-c3ccc(-c4ccccc4)cc3)c12 [Example 196, 4-Amino-2-(5-benzotriazolyl)-3-(4-biphenyl)furo[2,3-d]pyrimidine]						100 to 1000	100 to 1000	1000 to 10000
Nc1ncnc2oc(-c3ccc4[nH]cnc4c3)c(-c3ccc(-c4ccccc4)cc3)c12 [Example 198, 4-Amino-2-(5-benzimidazolyl)-3-(4-biphenyl)furo[2,3-d]pyrimidine]						100 to 1000	100 to 1000	1000 to 10000
